Assay results: PMC9738062, “Selectively Halogenated Flavonolignans—Preparation and Antibacterial Activity” (International Journal of Molecular Sciences, 2022)

How the values were obtained:
DPPH radical scavenging = conditions: 1,1-diphenyl-2-picrylhydrazyl radical scavenging
Description: (§1) To further elucidate how halogenation affects other properties of the flavonoids studied, their 2,2′-azino-bis-(3-ethylbenzothiazoline-6-sulfonic acid) cation (ABTS) and 1,1-diphenyl-2-picrylhydrazyl (DPPH) radical scavenging, the Folin–Ciocalteu reagent (FCR) reducing, the ferric-reducing antioxidant power (FRAP), and the anti-lipoperoxidation activities were evaluated by in vitro methods (Supplementary Information Tables S1 and S2).
(§2) The antiradical activity was evaluated by the ability to scavenge ABTS and DPPH radicals. Reducing capacity was assessed by the ability to reduce the Folin–Ciocalteu reagent (FCR) and ferric ions (FRAP). The ability to inhibit lipid peroxidation of pooled male rat microsomal liver membranes induced by tert-butyl hydroperoxide was also evaluated and the results were expressed as IC50 values.

[1] = Ferric reducing antioxidant power (FRAP); conditions: Fe2+ equivalents
Description: as §1, §2

[2] = tested on: Vibrio campbellii BAA 1119 (AI-2); assay: Viability of the quorum-sensing reporter culture (resazurin assay), AI-2 strain; assay type: cell-based; conditions: BAA1119, V. campbellii BAA 1119, resazurin assay, read-out: IC50 (concentration that halved the viability)
From the text: (§3) Commercially available strains of Vibrio campbellii were used to evaluate the ability of flavonoids and their derivatives to inhibit bacterial quorum sensing. V. campbellii uses two types of autoinducing molecules for its communication—N-acyl-homoserine lactones (Autoinducer I, AI-1, strain BAA 1118) and furanosyl borate diester (Autoinducer II, AI-2, strain BAA 1119). AI-1-based communication is mainly used by Gram-negative bacteria, while AI-2-based communication is found in both Gram-negative and Gram-positive bacteria. The mutant strains of V. campbellii BA1118 and BA1119 respond only to AI-1 or AI-2, respectively, and the response to the respective AI concentration is measured as luminescence. The higher the AI concentration, the higher the luminescence signal. The ability to inhibit the communication was expressed as the selectivity index (SI), calculated as the ratio between the concentration that halved the viability (IC50) and the concentration that halved the communication (EC50) of the respective V. campbellii strains. […] The antimicrobial activity of quorum-sensing inhibitors is undesirable because it creates a selection pressure and can lead to the development of resistance.
(§4) The inhibition of bacterial extracellular communication was measured using Vibrio campbellii strains BAA-1118 and BAA-1119. The experiment was performed according to the methods of Szemerédi et al.. Briefly, 5 × 10^5 CFU/mL (colony-forming units per milliliter) were seeded in an Autoinducer Bioassay medium (NaCl 17.5 g/L, MgSO4 12.3 g/L, Casamino acids 2 g/L, 10 mL of 1 M potassium phosphate pH 7.0, 10 mL of 0.1 M L-arginine, and 10 mL of glycerol in 970 mL of deionized water) in a 96-well plate. Immediately, the tested compounds were added at the final concentration of 0.2–200 µM and luminescence was recorded for 16 h by a SpectraMax i3x microplate reader set at 30 °C, an integration time of 10,000 ms, and shaking for 60 s before measurement. […] The selectivity index was calculated as the […]. The EC50 and IC50 were calculated using GraphPad Prism software version 5.00 for Windows with a nonlinear regression curve fit.

[3] = ABTS cation radical scavenging; conditions: vitamin C equivalent antioxidant capacity
Description: as §1, §2

[4] = tested on: Vibrio campbellii BAA 1118 (AI-1); assay: Viability of the quorum-sensing reporter culture (resazurin assay), AI-1 strain; assay type: cell-based; conditions: BAA1118, V. campbellii BAA 1118, resazurin assay, read-out: IC50 (concentration that halved the viability)
From the text: as §3, §4

[5] = tested on: lipopolysaccharide-stimulated macrophages (RAW 264.7); assay: Inhibition of nitric oxide production (Griess reagent); assay type: cell-based, murine; conditions: Mus musculus, RAW264.7; LPS 100 ng/mL, 24 h; highest tested concentration 100 µM; read-out: NO Production IC50
Description: The anti-inflammatory activity of the tested flavonolignans was determined as the ability to reduce nitric oxide production by murine macrophages (RAW 264.7) stimulated by bacterial lipopolysaccharides, as previously described. […] For the experiment, 1 × 10^6 cells/mL was seeded into the 96-well plate (100 µL/well). […] After 24 h, the medium was mixed with Griess reagent (0.04 g/mL), prepared freshly in deionized water at the ratio of 1:1. The absorbance was measured after 15 min at 540 nm by the SpectraMax i3x microplate reader. Cell viability was determined by resazurin assay.

[6] = tested on: multidrug-resistant S. aureus; assay: Sensitization of antibiotic-resistant bacteria (compound plus breakpoint antibiotic concentration); assay type: cell-based, Staphylococcus aureus; conditions: flavonoid 40 µM, 24 h; for Effect on viability in combination with chloramphenicol: chloramphenicol 8 mg/L
Description: (§5) Clinically relevant antibiotics were selected for sensitization testing according to the European Committee on Antimicrobial Susceptibility Testing (EUCAST). Neither colistin and imipenem at breakpoint concentrations (according to EUCAST, […] and […]) affected the growth of the multidrug-resistant clinical strain of P. aeruginosa. Similarly, neither chloramphenicol and gentamicin at breakpoint concentrations ([…], respectively) affected the multidrug-resistant clinical strain of S. aureus. Flavonoids and their derivatives (1–40 µM) were used in combination therapy, along with the breakpoint concentration of antibiotics. After co-incubation, the minimum inhibitory concentration of flavonoids inhibiting the visible growth of bacteria was determined (Table 2).
(§6) Clinical isolates of P. aeruginosa and S. aureus were obtained from the General University Hospital in Prague (Prague, Czech Republic). P. aeruginosa was resistant to ciprofloxacin, oxacillin, ticarcillin, colistin, gentamicin, and imipenem. S. aureus was resistant to ciprofloxacin, gentamicin, erythromycin, chloramphenicol, clindamycin, oxacillin, cefotaxime, and vancomycin. Bacteria were cultivated in Mueller–Hinton broth (MH broth, Merck). The susceptibility of the bacteria was evaluated by the minimum inhibitory concentrations (MIC). The MIC of derivatives in the presence of the antibiotic cut-off concentration was determined according to ISO 20776-1: 2020. The antibiotic cut-off concentration was chosen according to the European Committee on Antimicrobial Susceptibility Testing (EUCAST, Clinical breakpoints—bacteria (ver. 11.0), 1 January 2021). The 40 µM concentration of the derivatives was chosen as the highest concentration for the tests. Cell viability was determined by measuring absorbance (A590 nm) after 24 h incubation at 37 °C, 150 rpm.

[7] = tested on: pooled male rat microsomal liver membranes; assay: Inhibition of lipid peroxidation induced by tert-butyl hydroperoxide; assay type: biochemical; conditions: male rat microsomes, read-out: ILP IC50
Description: as §2

[8] = tested on: multidrug-resistant P. aeruginosa; assay: Sensitization of antibiotic-resistant bacteria (compound plus breakpoint antibiotic concentration); assay type: cell-based, Pseudomonas aeruginosa; conditions: flavonoid 40 µM, 24 h; for Effect on viability in combination with imipenem: imipenem 4 mg/L; for Effect on viability in combination with imipenem: key: -: no effect (100% viability) was observed up to the highest flavonolignan concentration tested (>40 µM); reversion of resistance: the compound reversed the resistant phenotype to a sensitive one
Description: as §5, §6

[9] = Folin-Ciocalteu reagent reduction; conditions: gallic acid equivalents
Description: as §1, §2

[10] = tested on: Vibrio campbellii BAA 1119 (AI-2); assay: microbe, parasite or virus in culture; assay type: cell-based; conditions: for EC50: Vibrio campbellii, BAA1119, 16 h, read-out: EC50 (concentration that halved the communication)
From the text: as §3, §4

[11] = tested on: Vibrio campbellii BAA 1118 (AI-1); assay: microbe, parasite or virus in culture; assay type: cell-based; conditions: Vibrio campbellii, BAA1118, 16 h, read-out: EC50 (concentration that halved the communication)
From the text: as §3, §4

[12] = tested on: human dermal fibroblasts (HDF); assay: Cytotoxicity (resazurin assay, 72 h); assay type: cell-based; conditions: Fibroblast
Description: (§7) The cytotoxicity of flavonoids and their halogenated derivatives was determined as their ability to decrease the viability of human dermal fibroblasts (HDF) and doxorubicin-resistant human ovarian carcinomas (HOC/DOX). Both cell lines were cultivated in Dulbecco’s Modified Eagle’s Medium supplemented with fetal bovine serum (FBS, 10% v/v) and 1 × antibiotic antimycotic solution and incubated at 37 °C in the atmosphere of 5% CO2. The experiment was performed according to a previously published method. Briefly, 1 × 10^5 cells/mL were seeded into a 96-well plate (100 µL/well). After 24 h, flavonoids and their derivatives were administered at the concentration range of 31.25–500 µM. After 72 h, the viability was determined by resazurin assay (0.03 mg/mL of resazurin in PBS), where the fluorescence was measured after 2 h of incubation by the SpectraMax i3x microplate reader at a wavelength of 560/590 nm (excitation/emission). The concentration inhibiting half of the population (IC50) was determined using nonlinear regression in GraphPad Prism software. The selectivity index was calculated as the ratio between the IC50 for HDF (control, non-cancerous cells) and the IC50 for HOC/DOX (cancer cells).

[13] = tested on: doxorubicin-resistant human ovarian carcinoma (HOC/DOX); assay: Cytotoxicity (resazurin assay, 72 h); assay type: cell-based; conditions: for IC50: Homo sapiens, 72 h, resazurin assay; for SI (selectivity index): ratio IC50 for HDF / IC50 for HOC/DOX
Description: as §7

[14] = tested on: S. aureus biofilm formation; design: method as in PMID 28365326; conditions: cited from earlier work
breast cancer cell lines = tested on: breast cancer cell lines; design: method as in PMID 23962161; conditions: cited from earlier work

With `COc1cc([C@@H]2Oc3c(O)cc([C@H]4Oc5c(Br)c(O)c(Br)c(O)c5C(=O)[C@@H]4O)cc3[C@H]2CO)ccc1O` [compound 15, 6,8-Dibromosilychristin A] the IC50 (DPPH radical scavenging) was 106 µM, the “FRAP [Fe2+eq]” value [1] was 0.34 ± 0.03 Fe2+eq and the IC50 [2] was over 200 µM. The “ABTS [CEAC]” value [3] was 1.28 ± 0.02 CEAC, the IC50 [4] was over 200 µM and the IC50 [5] was over 100 µM. For the same compound, the “Effect on viability in combination with chloramphenicol” value [6] was “-”, the IC50 [7] was 459 µM and the “Effect on viability in combination with colistin” value ([8]; colistin 2 mg/L) was “-”. For the same compound, the “Effect on viability in combination with imipenem” value [8] was “-”, the “FCR [GAE]” value [9] was 2.03 ± 0.05 GAE and the EC50 [10] was over 200 µM. The EC50 [11] was over 200 µM, the IC50 [12] was 176 µM and the IC50 [13] was 249 µM. The “SI (selectivity index)” value [13] was 0.71.

With `COc1cc(C2Oc3cc(-c4oc5c(Br)c(O)c(Br)c(O)c5c(=O)c4O)ccc3OC2CO)ccc1O` (stereo not drawn) [compound 17, 6,8-dibromo-2,3-dehydrosilybin AB] the IC50 (DPPH radical scavenging) was 11.7 µM, the “FRAP [Fe2+eq]” value [1] was 0.54 ± 0.04 Fe2+eq and the IC50 [2] was 127 ± 7.4 µM. For the same compound, the “ABTS [CEAC]” value [3] was 1.49 ± 0.04 CEAC, the IC50 [4] was over 200 µM and the IC50 [5] was 44.4 ± 2.4 µM. For the same compound, the “Effect on viability in combination with chloramphenicol” value [6] was “-”, the “Effect on viability in combination with gentamicin” value ([6]; gentamicin 1 mg/L) was “-” and the IC50 [7] was 56.7 ± 1.6 µM. The “Effect on viability in combination with imipenem” value [8] was “-”, the “FCR [GAE]” value [9] was 1.50 ± 0.02 GAE and the EC50 [10] was 4.1 ± 0.2 µM. The “SI (selectivity index)” value ([10]; ratio IC50 (viability) / EC50 (communication), BAA 1119) was 31.2 ± 3.5, the EC50 [11] was 55.5 ± 1.6 µM and the IC50 [12] was 41.7 ± 1 µM. For the same compound, the IC50 [13] was 91.3 ± 1.6 µM and the “SI (selectivity index)” value [13] was 0.46.

For `COc1cc([C@@H]2Oc3c(O)cc([C@H]4Oc5c(I)c(O)c(I)c(O)c5C(=O)[C@@H]4O)cc3[C@H]2CO)ccc1O` [compound 27, 6,8-diiodosilychristin A], the IC50 (DPPH radical scavenging) was 168 µM, the “FRAP [Fe2+eq]” value [1] was 0.21 ± 0.01 Fe2+eq and the “ABTS [CEAC]” value [3] was 1.13 ± 0.01 CEAC. For the same compound, the IC50 [7] was 97.2 ± 3.5 µM and the “FCR [GAE]” value [9] was 1.79 ± 0.05 GAE.

In the case of `COc1ccc([C@@H]2CC(=O)c3c(O)cc(O)cc3O2)cc1O` [hesperetin], the “Concentration inhibiting S. aureus biofilm formation” value [14] is given as at most 4 µM.

For `O=c1c(O)c(-c2cc(O)c(O)c(O)c2)oc2cc(O)cc(O)c12` [myricetin], the “Concentration inhibiting S. aureus biofilm formation” value [14] is given as at most 4 µM.

In the case of `O=C(CCc1ccc(O)cc1)c1c(O)cc(O)cc1O` [phloretin], the “Concentration inhibiting S. aureus biofilm formation” value [14] is given as at most 4 µM.

In the case of prulonide A, the Concentration showing cytotoxicity (breast cancer cell lines) is listed as 1000 nM.
